Our source for the IC50 and Activity values is ChEMBL document CHEMBL2074158, “Interaction of omeprazole, lansoprazole and pantoprazole with P-glycoprotein” (Naunyn Schmiedebergs Arch Pharmacol, 2001).

Series [1] addresses T1, ATP-dependent translocase ABCB1 (Homo sapiens, UniProt P08183). The series is described as follows: TP_TRANSPORTER: inhibition of Digoxin transepithelial transport (basal to apical) (Digoxin: 5 uM) in Caco-2 cells. It is filed as functional, cell-based.
For series [2], the target named is T1, ATP-dependent translocase ABCB1. The series is described as follows: TP_TRANSPORTER: transepithelial transport (basal to apical) in MDR1-expressing LLC-PK1 cells. It is filed as functional, cell-based. To be noted: pig.

T1 sequence (P08183 whole entry): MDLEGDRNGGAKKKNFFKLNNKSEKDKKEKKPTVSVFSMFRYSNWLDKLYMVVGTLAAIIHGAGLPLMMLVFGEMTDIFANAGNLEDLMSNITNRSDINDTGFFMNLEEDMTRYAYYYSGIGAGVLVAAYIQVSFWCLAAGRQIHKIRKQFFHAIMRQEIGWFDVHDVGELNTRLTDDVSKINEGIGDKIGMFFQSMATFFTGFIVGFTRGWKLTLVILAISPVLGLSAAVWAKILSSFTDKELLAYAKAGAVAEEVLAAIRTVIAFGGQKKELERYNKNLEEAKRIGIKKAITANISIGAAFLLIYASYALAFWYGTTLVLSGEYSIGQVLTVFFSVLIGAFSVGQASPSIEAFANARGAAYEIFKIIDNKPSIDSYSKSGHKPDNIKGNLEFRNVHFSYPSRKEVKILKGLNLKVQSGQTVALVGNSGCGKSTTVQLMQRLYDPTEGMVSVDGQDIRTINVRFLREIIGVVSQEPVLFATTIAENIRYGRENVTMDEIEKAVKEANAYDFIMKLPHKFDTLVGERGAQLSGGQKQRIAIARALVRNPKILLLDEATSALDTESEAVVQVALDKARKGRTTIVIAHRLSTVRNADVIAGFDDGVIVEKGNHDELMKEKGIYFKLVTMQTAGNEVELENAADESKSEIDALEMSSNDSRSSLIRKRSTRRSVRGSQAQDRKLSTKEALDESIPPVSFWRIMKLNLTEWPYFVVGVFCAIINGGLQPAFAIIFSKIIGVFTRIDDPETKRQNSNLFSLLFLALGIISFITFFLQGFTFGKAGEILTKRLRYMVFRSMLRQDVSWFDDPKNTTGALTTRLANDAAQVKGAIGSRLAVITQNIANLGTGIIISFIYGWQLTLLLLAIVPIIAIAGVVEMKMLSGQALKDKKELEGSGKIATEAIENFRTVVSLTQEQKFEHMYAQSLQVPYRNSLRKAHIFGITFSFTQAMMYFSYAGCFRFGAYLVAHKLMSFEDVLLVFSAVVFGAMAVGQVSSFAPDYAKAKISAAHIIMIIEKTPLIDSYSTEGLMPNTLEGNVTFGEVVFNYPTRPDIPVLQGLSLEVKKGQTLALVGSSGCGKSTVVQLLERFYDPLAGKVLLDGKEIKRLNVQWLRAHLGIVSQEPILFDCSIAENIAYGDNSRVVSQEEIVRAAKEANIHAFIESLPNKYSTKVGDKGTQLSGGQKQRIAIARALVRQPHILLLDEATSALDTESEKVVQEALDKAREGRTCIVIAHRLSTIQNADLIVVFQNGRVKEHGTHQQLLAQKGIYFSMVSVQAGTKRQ

With `Cc1c(OCC(F)(F)F)ccnc1C[S+]([O-])c1nc2ccccc2[nH]1` (stereo unspecified) [LANSOPRAZOLE], the IC50 in series [1] is 62.8 µM. Also, the Activity entry in series [2] was “substrate [+]”.
As to `COc1ccnc(C[S+]([O-])c2nc3ccc(OC(F)F)cc3[nH]2)c1OC` (stereo unspecified) [PANTOPRAZOLE], the IC50 in series [1] came out at 17.9 µM. Further, the Activity result in series [2] is “substrate [+]”.
Taken in the same sequence, the figures for `COc1ccc2[nH]c([S+]([O-])Cc3ncc(C)c(OC)c3C)nc2c1` (stereo unspecified) [OMEPRAZOLE] were 17.7 µM and “substrate [+]”.

One may read the IC50 as the concentration at which inhibition is half-maximal.
